Results on 51 compounds are retold here after patent US8034940B2, “Modulators of glucocorticoid receptor, AP-1, and/or NF-κB activity and use thereof” (Bristol-Myers Squibb Company, priority 2006, dated 2011).

The experiment has as its system AP-1 induced transcriptional activity. Kind of experiment: Cellular Transrepressional Assay (AP-1 luciferase reporter, PMA-activated A549 cells). It is filed as cell-based. The note with it: for AP-1 Max % inh (Cellular Transrepression Assay) / Emax: maximum inhibition; for Emax: A549, 7 h, read-out: AP-1 Max % inh (Cellular Transrepression Assay). The procedure: Cellular Transrepressional Assay
To measure the ability of test molecules to inhibit AP-1 induced transcriptional activity we utilized an A549 cell which was stably transfected with a plasmid containing 7× AP-1 DNA binding sites (pAP-1-Luc plasmid, Stratagene Co. La Jolla, Calif.) followed by the gene for luciferase. Cells were activated with 10 ng/ml of […] (PMA) plus or minus test molecules for 7 hours. After 7 hours a luciferase reagent was added to measure luciferase enzymatic activity in the cell. After a 10 minute incubation of luciferase reagent with cells, luminescence was measured in a TopCount luminescence counter. Repression of AP-1 activity was calculated as the percentage decrease in the signal induced by PMA alone. Test molecules were analyzed in the concentration range from 0.1 nM to 40 μM. EC50s were determined by using standard curve fitting methods such as Excel fit (Microsoft Co.).
In general terms: Reporter assays use an easily measured gene product as a stand-in for the process of interest.

Where [1] appears, read: Homo sapiens, Cellular Transrepression Assay.
[2] abbreviates: Homo sapiens, A549, Cellular Transrepression Assay.

What is called EC50 is the midpoint of the concentration-response curve. Take `CC(O)c1ccc(-c2ccc3c(n2)Oc2ccccc2C3C(C)(C)C(=O)Nc2nncs2)cc1` (mixture of isomers) [Example 239]: for the setting “Cellular Transrepression Assay”, the concentration for a half-maximal effect (EC50) worked out at 12.4 nM and the “AP-1 Max % inh (Cellular Transrepression Assay)” value (from here on “AP-1 Max % inh”) worked out at 44.85%.

For the compound `CC(C)Oc1ccc(-c2ccc3c(n2)Oc2c(F)cccc2C3C(C)(C)C(=O)Nc2nncs2)cc1F` (racemic) [Example 163], where the note is “Cellular Transrepression Assay”, the EC50 is 16.8 nM and the “AP-1 Max % inh” value turned out to be 49.60%.

Turning to `CN(C)C(=O)c1ccc(-c2ccc3c(n2)Oc2c(F)cccc2C3C(C)(C)C(=O)Nc2nncs2)cc1` (racemic) [Example 164], where the note is “Cellular Transrepression Assay”, a half-maximal response (EC50) required 5.58 nM and the “AP-1 Max % inh” value stood at 57.26%.

Regarding `CN(C)C(=O)c1ccc(-c2ccc3c(n2)Oc2c(F)cccc2C3C(C)(C)C(=O)Nc2nncs2)cc1F` (racemic) [Example 165], for the setting “Cellular Transrepression Assay”, a half-maximal response (EC50) required 25.6 nM and the “AP-1 Max % inh” value is reported as 56.92%.

Consider `Cc1nnc(NC(=O)C(C)(C)C2c3ccc(-c4ccc(C(=O)N(C)C)c(F)c4)nc3Oc3c(F)cccc32)s1` (racemic) [Example 167], for which, where the note is “Cellular Transrepression Assay”, the response was half-maximal at 36.6 nM (EC50) and the “AP-1 Max % inh” value was 57.94%.

Regarding `CN(C)C(=O)c1ccc(-c2ccc3c(n2)Oc2ccccc2[C@@H]3C2(C(=O)Nc3nncs3)CCC2)cc1` (single isomer, unassigned) [Example 480], under setting [1], the Emax came to 44%. Under setting [2], this compound yielded an EC50 of 27 nM.

For `CN(C)C(=O)c1ccc(-c2ccc3c(n2)Oc2ccccc2[C@H]3C2(C(=O)Nc3nncs3)CCC2)cc1` (single isomer, unassigned) [Example 481], the Emax under setting [1] stood at 33.8%. The same compound showed a concentration giving a half-maximal response (EC50) under setting [2] of 579 nM.

For the compound `O=C(CC1c2ccccc2Oc2ccccc21)Nc1nc(Cc2ccc(-c3ccncc3)cc2)cs1` [Example 1], under setting [1], the Emax came to 69.3%. For the same compound, the EC50 under setting [2] came out at 157 nM.

For `O=C(CC1c2ccccc2Oc2ccccc21)Nc1nc(-c2ccc(F)c3ccccc23)cs1` [Example 2], the Emax under setting [1] came to 42.7%.

Consider `Cc1ccc(-c2csc(NC(=O)CC3c4ccccc4Oc4ccccc43)n2)c2ccccc12` [Example 3], for which, under setting [1], the Emax is 47.8%.

Turning to `O=C(CC1c2ccccc2Oc2ccccc21)Nc1nc(-c2cccc3ccccc23)cs1` [Example 4], the Emax under setting [1] stood at 56.5%.

Consider `CC(C)(C(=O)Nc1nc(Cc2ccc(-c3ccncc3)cc2)cs1)C1c2ccccc2Sc2ccccc21` [Example 5], for which, under setting [1], the Emax came to 66%. The EC50 under setting [2] was found to be 58.2 nM.

For `CC(C)(C(=O)Nc1nc(-c2cccc3ccccc23)cs1)C1c2ccccc2Sc2ccccc21` [Example 6], the Emax under setting [1] was determined as 67.9%. Under setting [2], the concentration for a half-maximal effect (EC50) stood at 461 nM.

Regarding `Cc1ccc(-c2csc(NC(=O)C(C)(C)C3c4ccccc4Sc4ccccc43)n2)c2ccccc12` [Example 7], under setting [1], the Emax stood at 64.9%. Under setting [2], this compound returned an EC50 of 303 nM.

In the case of `CC(C)(C(=O)Nc1nc(-c2ccc(F)c3ccccc23)cs1)C1c2ccccc2Sc2ccccc21` [Example 8], under setting [1], the Emax was 69%. Under setting [2], the EC50 came to 546 nM.

With `CC(C)(C(=O)Nc1nc(Cc2ccc(-c3ccncc3)cc2)cs1)C1c2ccccc2S(=O)(=O)c2ccccc21` [Example 10], the Emax under setting [1] was 86.5%. Besides, the half-maximal effective concentration (EC50) under setting [2] was 16.8 nM.

`CC(C)(C(=O)Nc1nc(-c2ccc(F)c3ccccc23)cs1)C1c2ccccc2S(=O)(=O)c2ccccc21` [Example 11]: under setting [1], the Emax was 68.5%. The EC50 under setting [2] stood at 882 nM.

As to `CC(C)(C(=O)Nc1nc(-c2cccc3ccccc23)cs1)C1c2ccccc2S(=O)(=O)c2ccccc21` [Example 12], the Emax under setting [1] was determined as 67.9%. The compound further had an EC50 under setting [2] of 461 nM.

As to `Cc1ccc(-c2csc(NC(=O)C(C)(C)C3c4ccccc4S(=O)(=O)c4ccccc43)n2)c2ccccc12` [Example 13], the Emax under setting [1] was 60.3%. Moreover, under setting [2], a half-maximal response (EC50) required 566 nM.

In the case of `CC(C)(C(=O)Nc1nc(-c2cccc3ccccc23)cs1)C1c2ccccc2Cc2ccccc21` [Example 15], the Emax under setting [1] worked out at 65.9%. For the same compound, the 50% effective concentration (EC50) under setting [2] was 501 nM.

With `Cc1ccc(-c2csc(NC(=O)C(C)(C)C3c4ccccc4Cc4ccccc43)n2)c2ccccc12` [Example 16], the Emax under setting [1] worked out at 59.9%. Also, the concentration giving a half-maximal response (EC50) under setting [2] stood at 303 nM.

For the compound `CC(C)(C(=O)Nc1nc(-c2ccc(F)c3ccccc23)cs1)C1c2ccccc2Cc2ccccc21` [Example 17], the Emax under setting [1] is 68%. Also, the 50% effective concentration (EC50) under setting [2] worked out at 335 nM.

Take `CC(C)(C(=O)Nc1nccs1)C1c2ccccc2-c2ccccc21` [Example 18]: the Emax under setting [1] was 37.6%. Also, the concentration for a half-maximal effect (EC50) under setting [2] was determined as 542 nM.

`CC(C)(C(=O)Nc1nc(-c2cccc3ccccc23)cs1)C1c2ccccc2-c2ccccc21` [Example 19]: the Emax under setting [1] came out at 52.7%.

In the case of `Cc1ccc(-c2csc(NC(=O)C(C)(C)C3c4ccccc4-c4ccccc43)n2)c2ccccc12` [Example 20], the Emax under setting [1] came to 46.9%. This compound also gave an EC50 under setting [2] of 473 nM.

In the case of `CC(C)(C(=O)Nc1nc(-c2ccc(F)c3ccccc23)cs1)C1c2ccccc2-c2ccccc21` [Example 21], the Emax under setting [1] stood at 60.8%.

Regarding `CC(C)(C(=O)Nc1nc(Cc2ccc(-c3ccncc3)cc2)cs1)C1c2ccccc2CCc2ccccc21` [Example 24], the Emax under setting [1] came to 78.8%. Moreover, under setting [2], a half-maximal response (EC50) required 15.7 nM.

As for `O=C(CC1c2ccccc2Sc2ccccc21)Nc1nc(-c2ccc(F)c3ccccc23)cs1` [Example 26], under setting [1], the Emax was found to be 26.9%.

Take `Cc1ccc(-c2csc(NC(=O)CC3c4ccccc4Sc4ccccc43)n2)c2ccccc12` [Example 27]: under setting [1], the Emax was found to be 15%.

Take `O=C(CC1c2ccccc2Sc2ccccc21)Nc1nc(-c2cccc3ccccc23)cs1` [Example 28]: the Emax under setting [1] was determined as 43.7%.

Turning to `COc1ccc(NC(=O)c2cccc(-c3csc(NC(=O)C(C)(C)C4c5ccccc5Oc5ccccc54)n3)c2)cc1Cl` [Example 29], under setting [1], the Emax came out at 66.4%. In addition, the concentration for a half-maximal effect (EC50) under setting [2] is 139 nM.

For the compound `CC(C)(C(=O)Nc1nc(-c2cccc3ccccc23)cs1)C1c2ccccc2Oc2ccccc21` [Example 30], under setting [1], the Emax was found to be 67.2%. Besides, under setting [2], the 50% effective concentration (EC50) amounted to 338 nM.

For `Cc1ccc(-c2csc(NC(=O)C(C)(C)C3c4ccccc4Oc4ccccc43)n2)c2ccccc12` [Example 31], the Emax under setting [1] came to 69.4%. The EC50 under setting [2] stood at 179 nM.

Turning to `CC(C)(C(=O)Nc1nc(-c2ccc(F)c3ccccc23)cs1)C1c2ccccc2Oc2ccccc21` [Example 32], the Emax under setting [1] amounted to 67.6%. Moreover, the EC50 under setting [2] was determined as 302 nM.

As for `COc1ccc(Cc2csc(NC(=O)C(C)(C)C3c4ccccc4Oc4ccccc43)n2)cc1` [Example 33], the Emax under setting [1] amounted to 55.2%. The compound also registered a half-maximal effective concentration (EC50) under setting [2] of 31.8 nM.

Turning to `CC(C)(C(=O)Nc1nc(Cc2ccc(-c3ccncc3)cc2)cs1)C1c2ccccc2Oc2ccccc21` [Example 34], the Emax under setting [1] came out at 71.8%. Moreover, the 50% effective concentration (EC50) under setting [2] is 3.52 nM.

With `CC(C)(C(=O)Nc1nc(Cc2ccc(Br)cc2)cs1)C1c2ccccc2Oc2ccccc21` [Example 35], under setting [1], the Emax turned out to be 72.3%. The same compound had an EC50 under setting [2] of 80.6 nM.

For the compound `CC(C)(C(=O)Nc1nc(-c2ccc(F)c3ccccc23)c[nH]1)C1c2ccccc2Oc2ccccc21` [Example 38], the Emax under setting [1] came out at 70.4%.

As to `CC(C)(C(=O)Nc1nc(-c2ccc(F)c3ccccc23)cs1)C1c2ccccc2Oc2ccc(C(F)(F)F)cc21` (centres unmarked) [Example 40], the Emax under setting [1] was 47.8%. Under setting [2], this compound gave a concentration for a half-maximal effect (EC50) of 461 nM.

`CC(C)(C(=O)Nc1nc(Cc2ccc(-c3cn[nH]c3)cc2)cs1)C1c2ccccc2Oc2ccccc21` [Example 41]: the Emax under setting [1] was determined as 73.8%. Besides, under setting [2], the EC50 was 5.82 nM.

For `Cn1cc(-c2ccc(Cc3csc(NC(=O)C(C)(C)C4c5ccccc5Oc5ccccc54)n3)cc2)cn1` [Example 42], the Emax under setting [1] was determined as 73.4%. For the same compound, the EC50 under setting [2] amounted to 3.7 nM.

As for `Cc1noc(C)c1-c1ccc(Cc2csc(NC(=O)C(C)(C)C3c4ccccc4Oc4ccccc43)n2)cc1` [Example 43], under setting [1], the Emax stood at 71.9%. Also, the half-maximal effective concentration (EC50) under setting [2] stood at 13.4 nM.

As for `CC(C)(C(=O)Nc1nc(C(=O)c2ccccc2)cs1)C1c2ccccc2Oc2ccccc21` [Example 44], the Emax under setting [1] is 69.3%.

As to `COc1ccc2c(c1)Oc1ccccc1C2C(C)(C)C(=O)Nc1nc(-c2ccc(F)c3ccccc23)cs1` (centres unmarked) [Example 45], the Emax under setting [1] worked out at 71.5%. The compound also yielded an EC50 under setting [2] of 102 nM.

On to `COc1ccc2c(c1)Oc1ccccc1C2C(C)(C)C(=O)Nc1nc(-c2ccc(C)c3ccccc23)cs1` (centres unmarked) [Example 46], for which the Emax under setting [1] was 67.6%. Further, the half-maximal effective concentration (EC50) under setting [2] came out at 90.2 nM.

`COc1ccc(Cc2csc(NC(=O)C(C)(C)C3c4ccccc4Oc4cc(OC)ccc43)n2)cc1` (centres unmarked) [Example 49]: the Emax under setting [1] worked out at 68.8%. For the same compound, under setting [2], the midpoint of the response, the EC50, lay at 40.3 nM.

On to `COc1ccc2c(c1)Oc1ccccc1C2C(C)(C)C(=O)Nc1nc(Cc2ccc(Br)cc2)cs1` (centres unmarked) [Example 50], for which the Emax under setting [1] amounted to 74.8%. This compound gave an EC50 under setting [2] of 165 nM.

Consider `COc1ccc2c(c1)Oc1ccccc1C2C(C)(C)C(=O)Nc1nc(Cc2ccc(-c3ccncc3)cc2)cs1` (centres unmarked) [Example 51], for which the Emax under setting [1] was determined as 77.9%. Further, the EC50 under setting [2] was found to be 6.87 nM.

In the case of `COc1ccc2c(c1)Oc1ccccc1C2C(C)(C)C(=O)Nc1nc(-c2cccc3ccccc23)cs1` (centres unmarked) [Example 52], the Emax under setting [1] came out at 70.8%. For the same compound, it took 213 nM to reach a half-maximal effect under setting [2] (EC50).

Consider `COc1ccc(Cc2csc(NC(=O)C(C)(C)C3c4ccccc4Oc4cc(OC)ccc43)n2)cc1` (centres unmarked) [Example 53], for which, under “Cellular Transrepression Assay”, the EC50 stood at 78.5 nM and the “AP-1 Max % inh” value was 72.00%.

For the compound `COc1ccc2c(c1)Oc1ccccc1[C@H]2C(C)(C)C(=O)Nc1nc(Cc2ccc(-c3ccncc3)cc2)cs1` [Example 54], the Emax under setting [1] is 71.4%. Besides, under setting [2], a half-maximal effect (EC50) was put at 13.1 nM.
